The source of these data is ChEMBL document CHEMBL1158571, “Antiplasmodial lanostanes from the Ganoderma lucidum mushroom” (J Nat Prod, 2010).

Active and inactive are the calls of the source. The calls are words filed in the database; no cut-off is given here.

Broadly, the IC50 is the midpoint of a concentration-inhibition curve. A higher IC50 goes with lower potency.

One experiment relates to Plasmodium falciparum. Kind of experiment: Antiplasmodial activity against Plasmodium falciparum. The format is functional, organism-based.
In turn, `C/C(=C/C(O)C[C@@H](C)[C@H]1CC[C@@]2(C)C3=CC[C@H]4C(C)(C)C(O)CC[C@]4(C)C3=CC[C@]12C)C(=O)O` (stereo partly drawn) came in with an IC50 of 11 µM.
Molecule `C/C(=C/CC[C@@H](C)[C@H]1CC[C@@]2(C)C3=CC[C@H]4C(C)(C)C(=O)CC[C@]4(C)C3=CC[C@]12C)C(=O)O` [GANODERIC ACID S] registered a concentration for half-maximal inhibition (IC50) of 11 µM.
The molecule `C/C(=C\CC[C@@H](C)[C@H]1C[C@@H](O)[C@@]2(C)C3=CC[C@H]4C(C)(C)C(=O)CC[C@]4(C)C3=CC[C@]12C)C(=O)O` [GANODERIC ACID TR 1] showed an IC50 of 18 µM.
`C/C(=C/CC[C@@H](C)[C@H]1C[C@H](O)[C@@]2(C)C3=CC[C@H]4C(C)(C)C(=O)CC[C@]4(C)C3=CC[C@]12C)C(=O)O` [GANODERIC ACID TR] returned an IC50 of 20 µM.
Molecule `C/C(C=O)=C/CC[C@@H](C)[C@H]1C[C@H](O)[C@@]2(C)C3=CC[C@H]4C(C)(C)C(=O)CC[C@]4(C)C3=CC[C@]12C` [GANODERIC ALDEHYDE TR] registered a 50% inhibitory concentration (IC50) of 6 µM.
Consider `C[C@H](CC[C@@H](O)C(C)(C)O)[C@H]1CC[C@@]2(C)C3=CC[C@H]4C(C)(C)C(=O)CC[C@]4(C)C3=CC[C@]12C` [GANODERMANONDIOL], for which inhibition was half-maximal at 13 µM (IC50).

A further experiment has as its system Plasmodium falciparum. Kind of experiment: Antiplasmodial activity against Plasmodium falciparum at 20 uM. The format is functional, organism-based.
For `C/C(=C/CC[C@@H](C)[C@H]1CC[C@@]2(C)C3=C(CC[C@]12C)[C@@]1(C)CCC(=O)C(C)(C)[C@@H]1CC3=O)C(=O)O`, the outcome was inactive.
For `CC(C)=CCC/C(C)=C/CCC(C(=O)O)c1cc2cc(O)ccc2o1` (stereo not drawn), the result was inactive.
